Measurements as given in patent publication EP4393921B1, “NALIDINONE COMPOUND AS FGFR4 INHIBITOR AND USE THEREOF” (Wenzhou Medical University, priority 2021, dated 2023).
Read-outs that look alike come from different tables or passages of the source.

Columns and labels:
FGFR1 = FGFR1 (Homo sapiens, UniProt P11362); assay: Mobility shift assay, FGFR1 kinase inhibition
Experimental: (§2) A specific experimental method is as follows.
(§3) (1) A 1×Kinase buffer was prepared. […] (3) A kinase solution with a 2.5 times final concentration was prepared with the 1×Kinase buffer. (4) 10 µL of the kinase solution with a 2.5 times final concentration was added to compound holes and positive control holes, respectively; and 10 µL of the 1×Kinase buffer was added to negative control holes. (5) Centrifugation was performed at 1,000 rpm for 30 s, the reaction plate was shaken for even mixing, and incubation was performed at room temperature for 60 min. (6) A mixed solution, with a 25/15 times final concentration, of ATP and Kinase substrate22 was prepared with the 1×Kinase buffer. (7) 15 µL of a mixed solution, with a 5/3 times final concentration, of ATP and a substrate was added to carry out an initial reaction. (8) A 384-well plate was centrifuged at 1,000 rpm for 30 s and shaken for even mixing, and incubation was performed at room temperature for 30 min. (9) 30 µL of a terminal detection solution was added to stop a kinase reaction, centrifugation was performed at 1,000 rpm for 30 s, and shaking was performed for even mixing. (10) A conversion rate was read with Caliper EZ Reader.
(§4) A dose-effect curve is fitted as follows.
(§5) With a concentration log value as an X axis and an inhibition rate percentage as a Y axis, the dose-effect curve was fitted by log (inhibitor) vs. response-Variable slope of analysis software GraphPad Prism 5, so as to obtain an IC50 value of each compound on enzyme activity. A calculation formula is: Y=Bottom+(Top-Bottom)/(1+10^((LogIC50-X)*HillSlope)).

FGFR2 = FGFR2 (Homo sapiens, UniProt P21802); assay: Mobility shift assay, FGFR2 kinase inhibition
Experimental: as §2, §3, §4, §5

FGFR3 = FGFR3 (Homo sapiens, UniProt P22607); assay: Mobility shift assay, FGFR3 kinase inhibition
Sequence of FGFR3 (P22607 23-806): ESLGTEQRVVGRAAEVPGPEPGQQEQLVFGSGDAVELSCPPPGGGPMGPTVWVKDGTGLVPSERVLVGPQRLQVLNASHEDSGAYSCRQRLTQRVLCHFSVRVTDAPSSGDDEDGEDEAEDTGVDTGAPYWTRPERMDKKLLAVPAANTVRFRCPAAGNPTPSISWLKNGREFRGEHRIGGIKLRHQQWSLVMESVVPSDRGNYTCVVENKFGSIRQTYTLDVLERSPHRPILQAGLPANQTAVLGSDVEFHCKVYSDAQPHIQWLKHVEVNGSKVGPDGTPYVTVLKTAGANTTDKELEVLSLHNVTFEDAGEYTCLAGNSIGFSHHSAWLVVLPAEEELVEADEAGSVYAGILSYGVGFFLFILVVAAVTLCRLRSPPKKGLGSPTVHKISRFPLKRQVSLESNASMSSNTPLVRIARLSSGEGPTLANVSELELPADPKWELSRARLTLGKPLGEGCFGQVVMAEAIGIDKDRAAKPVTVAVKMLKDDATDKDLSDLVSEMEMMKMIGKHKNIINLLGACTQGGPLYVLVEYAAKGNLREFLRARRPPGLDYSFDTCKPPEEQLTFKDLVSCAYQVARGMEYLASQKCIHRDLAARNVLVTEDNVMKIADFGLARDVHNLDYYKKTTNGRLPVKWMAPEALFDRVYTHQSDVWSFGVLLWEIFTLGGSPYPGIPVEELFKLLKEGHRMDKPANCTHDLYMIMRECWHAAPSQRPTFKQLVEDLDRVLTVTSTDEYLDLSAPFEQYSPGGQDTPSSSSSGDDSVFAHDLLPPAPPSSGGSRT
Experimental: as §2, §3, §4, §5

FGFR4 = FGFR4 (Homo sapiens, UniProt P22455); assay: Mobility shift assay, FGFR4 kinase inhibition
Sequence of FGFR4 (P22455 22-802): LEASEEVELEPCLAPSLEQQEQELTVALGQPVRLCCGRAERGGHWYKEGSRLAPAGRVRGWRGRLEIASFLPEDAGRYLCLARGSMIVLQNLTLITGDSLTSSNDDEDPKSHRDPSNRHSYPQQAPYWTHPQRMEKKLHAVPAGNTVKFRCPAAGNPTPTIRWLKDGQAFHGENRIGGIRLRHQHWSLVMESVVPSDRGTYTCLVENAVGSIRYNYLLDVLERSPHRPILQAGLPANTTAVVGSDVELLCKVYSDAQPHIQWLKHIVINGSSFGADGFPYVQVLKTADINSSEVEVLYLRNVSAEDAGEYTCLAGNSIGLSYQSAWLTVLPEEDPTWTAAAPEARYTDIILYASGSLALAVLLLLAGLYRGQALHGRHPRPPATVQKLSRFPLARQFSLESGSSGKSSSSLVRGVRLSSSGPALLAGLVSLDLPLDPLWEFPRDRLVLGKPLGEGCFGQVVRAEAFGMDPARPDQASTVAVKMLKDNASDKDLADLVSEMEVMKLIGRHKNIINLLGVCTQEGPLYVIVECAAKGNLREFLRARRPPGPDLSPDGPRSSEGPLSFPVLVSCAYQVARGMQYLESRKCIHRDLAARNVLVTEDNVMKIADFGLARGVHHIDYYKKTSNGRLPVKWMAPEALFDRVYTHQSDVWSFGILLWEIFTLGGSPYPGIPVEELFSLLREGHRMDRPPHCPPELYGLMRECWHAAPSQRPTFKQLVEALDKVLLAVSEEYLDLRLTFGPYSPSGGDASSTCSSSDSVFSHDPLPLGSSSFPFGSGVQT
Experimental: as §2, §3, §4, §5

[1] = tested on: colon cancer cells HCT-116; assay: MTT proliferation assay on colon cancer cells HCT-116; type: cell-based; settings: 3-100 µM, 72 h, dose-dependent, FIG. 4
Experimental: (§1) An MTT method was used for determination. An experimental method is briefly described as follows. A test compound 23 was first dissolved in DMSO to prepare a stock solution, and then the stock solution was subjected to gradient dilution with a corresponding cell culture medium to prepare a test sample, where a final concentration of the compound was in the range of 3-100 uM. Cells in a logarithmic culture stage were inoculated into a 96-well cell culture plate at an appropriate density, cultured overnight under corresponding conditions, and then continuously cultured for 72 h after the test compound sample was added. After the culture was completed, an appropriate volume of an MTT detection solution was added to each well, incubation was performed at 37°C for 1-4 h, and the culture medium was carefully discarded. […].

colon cancer cells SW480 = assay: MTT proliferation assay on colon cancer cells SW480; type: cell-based; settings: 3-100 µM, 72 h, dose-dependent, FIG. 5
Experimental: as §1

colon cancer cells RKO = assay: MTT proliferation assay on colon cancer cells RKO; type: cell-based; settings: 3-100 µM, 72 h, dose-dependent, FIG. 6
Experimental: as §1

Sequence of FGFR1 (P11362 22-822): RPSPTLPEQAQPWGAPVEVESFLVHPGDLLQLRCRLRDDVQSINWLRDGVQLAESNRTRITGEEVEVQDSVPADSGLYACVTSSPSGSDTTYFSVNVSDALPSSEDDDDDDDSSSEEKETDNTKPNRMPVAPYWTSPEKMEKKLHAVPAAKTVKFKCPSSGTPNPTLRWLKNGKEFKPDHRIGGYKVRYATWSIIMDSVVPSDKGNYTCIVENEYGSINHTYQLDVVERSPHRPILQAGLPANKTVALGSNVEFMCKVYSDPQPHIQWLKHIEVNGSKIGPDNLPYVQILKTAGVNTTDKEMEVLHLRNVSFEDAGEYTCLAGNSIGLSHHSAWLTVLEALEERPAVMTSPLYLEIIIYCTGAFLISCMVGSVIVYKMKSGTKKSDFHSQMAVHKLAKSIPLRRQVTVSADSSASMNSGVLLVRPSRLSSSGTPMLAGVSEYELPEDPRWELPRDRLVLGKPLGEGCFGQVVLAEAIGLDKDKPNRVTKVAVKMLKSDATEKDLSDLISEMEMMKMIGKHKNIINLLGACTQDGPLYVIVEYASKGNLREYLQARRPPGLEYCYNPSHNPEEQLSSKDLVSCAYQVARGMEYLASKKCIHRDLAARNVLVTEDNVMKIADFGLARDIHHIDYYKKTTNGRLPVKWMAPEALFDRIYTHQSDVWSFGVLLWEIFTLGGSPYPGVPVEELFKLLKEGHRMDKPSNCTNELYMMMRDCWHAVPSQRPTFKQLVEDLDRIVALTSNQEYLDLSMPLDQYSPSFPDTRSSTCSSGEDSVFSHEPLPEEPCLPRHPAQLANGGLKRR
Sequence of FGFR2 (P21802 22-821): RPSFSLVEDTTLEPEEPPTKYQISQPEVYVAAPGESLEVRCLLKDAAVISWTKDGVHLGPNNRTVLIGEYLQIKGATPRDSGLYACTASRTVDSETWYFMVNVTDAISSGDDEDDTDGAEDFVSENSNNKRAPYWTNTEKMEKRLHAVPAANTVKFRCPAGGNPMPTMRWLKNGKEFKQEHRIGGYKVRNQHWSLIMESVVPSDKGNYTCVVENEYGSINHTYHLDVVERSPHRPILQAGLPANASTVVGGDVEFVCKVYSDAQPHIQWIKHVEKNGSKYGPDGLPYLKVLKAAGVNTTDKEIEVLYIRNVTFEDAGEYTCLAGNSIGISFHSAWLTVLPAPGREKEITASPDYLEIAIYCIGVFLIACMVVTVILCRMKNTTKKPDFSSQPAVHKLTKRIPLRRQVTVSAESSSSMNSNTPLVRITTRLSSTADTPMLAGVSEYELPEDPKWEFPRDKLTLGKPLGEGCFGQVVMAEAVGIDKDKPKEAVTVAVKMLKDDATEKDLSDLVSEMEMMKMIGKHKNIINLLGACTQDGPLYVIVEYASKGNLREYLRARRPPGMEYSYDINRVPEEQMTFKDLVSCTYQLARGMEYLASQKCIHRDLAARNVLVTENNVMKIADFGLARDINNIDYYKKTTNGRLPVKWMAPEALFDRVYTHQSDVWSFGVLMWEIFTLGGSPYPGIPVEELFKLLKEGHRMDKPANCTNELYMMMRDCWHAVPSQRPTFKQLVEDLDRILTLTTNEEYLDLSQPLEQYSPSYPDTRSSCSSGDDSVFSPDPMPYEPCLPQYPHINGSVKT

Structure (SMILES) | IC50 (FGFR1; read-out: IC50 (nM) FGFR1, Mobility shift assay) [nM] | IC50 (FGFR2) [µM] | IC50 (FGFR3) [µM] | IC50 (FGFR4) [µM] | IC50 (FGFR1) [nM] | inhibition of proliferation of colon cancer cells HCT-116 [1] | inhibition of proliferation of colon cancer cells SW480 (colon cancer cells SW480) | inhibition of proliferation of colon cancer cells RKO (colon cancer cells RKO)
C=CC(=O)Nc1cccc(C)c1Nc1ncc2cc(-c3c(Cl)c(OC)cc(OC)c3Cl)ccc2n1 [BLU9931, reference compound] | 582 | 0.436 | 0.193 |  |  |  |  | 
C=CC(=O)Nc1cccc(C)c1Nc1cc2c(cn1)cc(-c1cc(OC)cc(OC)c1)c(=O)n2CCCN1CCN(C)CC1 [Compound 24, N-(2-((3-(3,5-dimethoxyphenyl)-2-oxo-1-(3-(4-methylpiperazin-1-yl)propyl)-1,2-dihydro-1,6-naphthyridin-7-yl)amino)-3-methylphenyl)acrylamide] |  | > 5 | > 5 | 0.0344 | > 5000 |  |  | 
C=CC(=O)Nc1cccc(C)c1Nc1cc2c(cn1)cc(-c1cc(OC)cc(OC)c1)c(=O)n2CCCN1CCCCC1 [Compound 22, N-(2-((3-(3,5-dimethoxyphenyl)-2-oxo-1-(3-(piperidin-1-yl)propyl)-1,2-dihydro-1,6-naphthyridin-7-yl)amino)-3-methylphenyl)acrylamide] |  | > 5 | > 5 | 0.0098 | > 5000 |  |  | 
C=CC(=O)Nc1cccc(C)c1Nc1cc2c(cn1)cc(-c1cc(OC)cc(OC)c1)c(=O)n2CCCO [Compound 29] |  | > 5 | > 5 | 0.0315 | > 5000 |  |  | 
C=CC(=O)Nc1cccc(C)c1Nc1cc2c(cn1)cc(-c1cc(OC)cc(OC)c1)c(=O)n2CCCN1CCOCC1 [Compound 26, N-(2-((3-(3,5-dimethoxyphenyl)-1-(3-morpholinopropyl)-2-oxo-1,2-dihydro-1,6-naphthyridin-7-yl)amino)-3-methylphenyl)acrylamide] |  | > 5 | > 5 |  | > 5000 |  |  | 
C=CC(=O)Nc1cccc(C)c1Nc1cc2c(cn1)cc(-c1c(Cl)c(OC)cc(OC)c1Cl)c(=O)n2CCCN1CCN(C)CC1 [Compound 25, N-(2-((3-(2,6-dichloro-3,5-dimethoxyphenyl)-2-oxo-1-(3-(4-methylpiperazin-1-yl)propyl)-1,2-2H-1,6-naphthyridin-7-yl)amino)-3-methylphenyl)acrylamide] |  | > 5 | > 5 | 0.0058 | > 5000 |  |  | 
C=CC(=O)Nc1cccc(C)c1Nc1cc2c(cn1)cc(-c1c(Cl)c(OC)cc(OC)c1Cl)c(=O)n2CCCN1CCOCC1 [Compound 27, N-(2-((3-(2,6-dichloro-3,5-dimethoxyphenyl)-1-(3-morpholinopropyl)-2-oxo-1,2-2H-1,6-naphthyridin-7-yl)amino)-3-methylphenyl)acrylamide] |  | > 5 | > 5 | 0.0044 | > 5000 |  |  | 
C=CC(=O)Nc1cccc(C)c1Nc1cc2c(cn1)cc(-c1c(Cl)c(OC)cc(OC)c1Cl)c(=O)n2CCCO [Compound 30, N-(2-((3-(2,6-dichloro-3,5-dimethoxyphenyl)-1-(3-hydroxypropyl)-2-oxo-1,2-2H-1,6-naphthyridin-7-yl)amino)-3-methylphenyl)acrylamide] |  | > 5 | > 5 |  | > 5000 |  |  | 
C=CC(=O)Nc1cccc(C)c1Nc1cc2c(cn1)cc(-c1c(Cl)c(OC)cc(OC)c1Cl)c(=O)n2CCCN1CCCCC1 [Compound 23, N-(2-((3-(2,6-dichloro-3,5-dimethoxyphenyl)-2-oxo-1-(3-(piperidin-1-yl)propyl)-1,2-2H-1,6-naphthyridin-7-yl)amino)-3-methylphenyl)acrylamide] |  | > 5 | > 5 | 0.0037 | > 5000 | can inhibit proliferation | can inhibit proliferation | can inhibit proliferation
